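All cell lines were grown in 96-well plates and treated with compound for 48 hours. The concentration for 50% growth inhibition is given as GI50. The concentration for full growth arrest is given as TGI.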
Key:
Assay in all cases: NCI anticancer screen, dose series, 48 h
[1] = test system: T-47D breast
[2] = test system: NCI-H522 lung
[3] = test system: A549 NSCLC
[4] = test system: NCI-H460 lung
[5] = test system: EKVX NSCLC
[6] = test system: HOP-62 NSCLC
[7] = test system: MOLT-4 leukemia
[8] = test system: NCI-H226 lung
[9] = test system: UACC-62 melanoma
[10] = test system: MALME-3M melanoma
[11] = test system: MDA-MB-435
[12] = test system: MCF7 breast
[13] = test system: HOP-92 NSCLC
[14] = test system: HCT-116 colon
[15] = test system: SNB-19 CNS
[16] = test system: SF-295 CNS
[17] = test system: RXF 393 renal
[18] = test system: HT29 colon
[19] = test system: SNB-75 CNS
[20] = test system: SF-539 CNS
[21] = test system: RPMI-8226 leukemia
[22] = test system: M14 melanoma
[23] = test system: HCC-2998 colon
[24] = test system: IGROV1 ovarian
[25] = test system: ACHN renal
[26] = test system: BT-549 breast
[27] = test system: SK-OV-3 ovarian
[28] = test system: DU-145 prostate
[29] = test system: OVCAR-8 ovarian
[30] = test system: UO-31 renal
[31] = test system: U251 CNS
[32] = test system: A498 renal
[33] = test system: PC-3 prostate
[34] = test system: SK-MEL-28 melanoma
[35] = test system: CAKI-1 renal
[36] = test system: HS 578T breast
[37] = test system: K-562 leukemia
[38] = test system: CCRF-CEM leukemia
[39] = test system: SK-MEL-2 melanoma
[40] = test system: SK-MEL-5 melanoma
[41] = test system: COLO 205 colon
[42] = test system: TK-10 renal
[43] = test system: UACC-257 melanoma
[44] = test system: SN12C renal
[45] = test system: NCI/ADR-RES ovarian
[46] = test system: SF-268 CNS
[47] = test system: SW-620 colon
[48] = test system: SR leukemia
[49] = test system: KM12 colon
[50] = test system: MDA-MB-468 breast
[51] = test system: OVCAR-4 ovarian
[52] = test system: MDA-MB-231 breast
[53] = test system: HCT-15 colon
[54] = test system: NCI-H23 lung
[55] = test system: LOX IMVI melanoma
[56] = test system: 786-0 renal
[57] = test system: HL-60(TB) leukemia
[58] = test system: OVCAR-3 ovarian
[59] = test system: OVCAR-5 ovarian

COc1csc(/C=N/NC(=O)c2[nH]c3ccc(Br)cc3c2-c2ccccc2)c1
GI50 [1]: 3890 nM | TGI [1]: > 95800 nM | GI50 [2]: < 13.8 nM | TGI [2]: 41.3 nM | GI50 [3]: 39.3 nM | TGI [3]: 22000 nM | GI50 [4]: 34.6 nM | TGI [4]: 10600 nM | GI50 [5]: 86.3 nM | TGI [5]: > 100000 nM | GI50 [6]: 79.4 nM | TGI [6]: 10500 nM | GI50 [7]: 46.3 nM | TGI [7]: > 37400 nM | GI50 [8]: 315 nM | TGI [8]: 2160 nM | GI50 [9]: 42 nM | TGI [9]: 16700 nM | GI50 [10]: 45.3 nM | TGI [10]: 20500 nM | GI50 [11]: 27.2 nM | TGI [11]: 98.5 nM | GI50 [12]: 28 nM | TGI [12]: 12700 nM | GI50 [13]: 920 nM | TGI [13]: 51200 nM | GI50 [14]: 30.5 nM | TGI [14]: 1150 nM | GI50 [15]: 47 nM | TGI [15]: 18400 nM | GI50 [16]: 30.3 nM | TGI [16]: 6480 nM | GI50 [17]: 49.6 nM | TGI [17]: 906 nM | GI50 [18]: 26.7 nM | TGI [18]: 69.1 nM | GI50 [19]: 100 nM | TGI [19]: 3780 nM | GI50 [20]: 21.7 nM | TGI [20]: 53.1 nM | GI50 [21]: 39.1 nM | TGI [21]: 8210 nM | GI50 [22]: 29.2 nM | TGI [22]: 22500 nM | GI50 [23]: 89.4 nM | TGI [23]: 17300 nM | GI50 [24]: 77.8 nM | TGI [24]: 17800 nM | GI50 [25]: 63.4 nM | TGI [25]: 34700 nM | GI50 [26]: 30.5 nM | TGI [26]: 354 nM | GI50 [27]: 51.9 nM | TGI [27]: 15500 nM | GI50 [28]: 36.8 nM | TGI [28]: 11500 nM | GI50 [29]: 28.9 nM | TGI [29]: 2000 nM | GI50 [30]: 60.2 nM | TGI [30]: > 100000 nM | GI50 [31]: 32 nM | TGI [31]: 12300 nM | GI50 [32]: 24000 nM | TGI [32]: 70100 nM | GI50 [33]: 57.5 nM | TGI [33]: 48800 nM | GI50 [34]: 1730 nM | TGI [34]: 46500 nM | GI50 [35]: 111 nM | TGI [35]: 34600 nM | GI50 [36]: 34.6 nM | TGI [36]: 22700 nM | GI50 [37]: 30.5 nM | TGI [37]: 13100 nM | GI50 [38]: 29.9 nM | TGI [38]: 1020 nM | GI50 [39]: 35.5 nM | TGI [39]: 389 nM | GI50 [40]: 26.3 nM | TGI [40]: 76.9 nM | GI50 [41]: 26.5 nM | TGI [41]: 70.3 nM | GI50 [42]: 13200 nM | TGI [42]: 43600 nM | GI50 [43]: 635 nM | TGI [43]: > 67200 nM | GI50 [44]: 38.7 nM | TGI [44]: 9100 nM | GI50 [45]: 23.8 nM | TGI [45]: 57.4 nM | GI50 [46]: 48.8 nM | TGI [46]: > 54200 nM | GI50 [47]: 42.4 nM | TGI [47]: > 100000 nM | GI50 [48]: 23.5 nM | TGI [48]: 23300 nM | GI50 [49]: 37.3 nM | TGI [49]: 10900 nM | GI50 [50]: 23.2 nM | TGI [50]: 65.1 nM | GI50 [51]: 5420 nM | TGI [51]: > 100000 nM | GI50 [52]: 26.4 nM | TGI [52]: 69.3 nM | GI50 [53]: 33.2 nM | TGI [53]: 14800 nM | GI50 [54]: 42.7 nM | TGI [54]: 17000 nM | GI50 [55]: 30.2 nM | TGI [55]: 18900 nM | GI50 [56]: 85.1 nM | TGI [56]: 9690 nM | GI50 [57]: 30.2 nM | TGI [57]: 180 nM | GI50 [58]: 32.5 nM | TGI [58]: 720 nM | GI50 [59]: 47.5 nM | TGI [59]: 53200 nM

From PubChem BioAssay (NCI)
